pIC50: −log10 of the molar value. A value given as a limit tells only on which side of the number the result lay.

His-tagged CRBN-DDB1 complex, sequence (Q96SW2 whole entry): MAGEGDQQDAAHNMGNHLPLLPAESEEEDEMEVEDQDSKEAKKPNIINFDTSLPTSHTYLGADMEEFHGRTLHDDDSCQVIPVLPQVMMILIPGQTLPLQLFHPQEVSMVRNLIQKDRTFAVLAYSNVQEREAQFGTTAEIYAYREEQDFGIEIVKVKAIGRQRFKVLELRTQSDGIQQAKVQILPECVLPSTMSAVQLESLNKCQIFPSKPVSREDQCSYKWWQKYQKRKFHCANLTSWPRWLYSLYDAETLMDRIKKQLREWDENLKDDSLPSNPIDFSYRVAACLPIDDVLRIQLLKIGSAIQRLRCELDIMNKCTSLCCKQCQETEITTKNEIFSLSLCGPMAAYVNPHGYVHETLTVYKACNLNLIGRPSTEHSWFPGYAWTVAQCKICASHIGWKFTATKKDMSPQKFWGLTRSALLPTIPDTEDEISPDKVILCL
His-tagged CRBN-DDB1 complex, sequence (Q16531 whole entry partner): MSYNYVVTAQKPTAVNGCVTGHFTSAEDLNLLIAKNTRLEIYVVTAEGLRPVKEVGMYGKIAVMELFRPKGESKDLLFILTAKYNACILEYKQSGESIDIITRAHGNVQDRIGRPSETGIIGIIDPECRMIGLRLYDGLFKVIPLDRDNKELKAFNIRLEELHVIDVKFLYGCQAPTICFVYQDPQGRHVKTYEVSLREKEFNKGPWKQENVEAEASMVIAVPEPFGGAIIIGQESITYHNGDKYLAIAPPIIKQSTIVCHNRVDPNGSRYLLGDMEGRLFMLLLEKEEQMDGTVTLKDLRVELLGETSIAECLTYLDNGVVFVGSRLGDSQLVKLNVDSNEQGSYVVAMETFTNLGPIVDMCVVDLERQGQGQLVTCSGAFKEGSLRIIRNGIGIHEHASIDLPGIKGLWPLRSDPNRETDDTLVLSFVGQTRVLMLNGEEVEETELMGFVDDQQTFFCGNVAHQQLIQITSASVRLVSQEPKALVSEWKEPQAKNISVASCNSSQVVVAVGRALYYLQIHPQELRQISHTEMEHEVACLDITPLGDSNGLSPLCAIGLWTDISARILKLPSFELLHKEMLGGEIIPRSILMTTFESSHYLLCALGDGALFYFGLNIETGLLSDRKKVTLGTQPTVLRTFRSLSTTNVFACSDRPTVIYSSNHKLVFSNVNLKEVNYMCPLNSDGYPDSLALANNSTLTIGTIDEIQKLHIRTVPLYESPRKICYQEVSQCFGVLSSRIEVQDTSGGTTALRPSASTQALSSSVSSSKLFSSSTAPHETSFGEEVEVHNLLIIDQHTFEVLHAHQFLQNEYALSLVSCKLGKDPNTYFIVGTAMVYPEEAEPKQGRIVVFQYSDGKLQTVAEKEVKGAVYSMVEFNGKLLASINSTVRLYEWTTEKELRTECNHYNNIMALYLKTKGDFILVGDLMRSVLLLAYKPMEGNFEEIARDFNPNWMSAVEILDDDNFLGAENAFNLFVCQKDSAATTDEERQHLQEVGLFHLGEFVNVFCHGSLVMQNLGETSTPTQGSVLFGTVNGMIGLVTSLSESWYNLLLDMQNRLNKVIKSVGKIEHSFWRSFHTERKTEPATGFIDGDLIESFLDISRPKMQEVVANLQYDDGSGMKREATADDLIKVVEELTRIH

One assay deals with His-tagged CRBN-DDB1 complex (Homo sapiens (Human), UniProt Q96SW2). The assay is described as follows: Time-Resolved Fluorescence Resonance Energy Transfer (TR-FRET) assay. The class given is binding. As to conditions: competition with Cy5-labeled thalidomide (8 nM), 1 hour at room temperature; read-out: CRBN HTRF IC50. The procedure:
The mixture were incubated at room temperature for 1 hour. […] Quantitative loss of FRET efficiency as a function of compound concentrations was fitted by a four-parameter Logistic Function using GraphPad Prism 7.0 and the IC50 values were reported for each compound.
The compound numbers correspond to the compound numbers in Table 1.
A general note: Time-resolved FRET reads energy transfer from a long-lived donor to a nearby acceptor.
For `Cn1c(=O)n(C2SC(=O)NC2=O)c2ccccc21` (centres unmarked) [Compound I-39], the pIC50 (as a rule, −log10 of the IC50, conventionally taken in molar units) is less than 4.00.

For the compound `Cn1ccnc1SC1CCC(=O)NC1=O` (centres unmarked) [Compound I-73], the pIC50 is less than 4.00.

Turning to `CN1Cc2ccccc2C(N2CCC(=O)NC2=O)C1=O` (centres unmarked) [Compound I-145, 1-(2-Methyl-3-oxo-1,2,3,4-tetrahydroisoquinolin-4-yl)dihydropyrimidine-2,4(1H,3H)-dione], the pIC50 was less than 4.00.

For the compound `O=C1CN(C2SC(=O)NC2=O)CCN1` (centres unmarked) [Compound I-77, 5-(3-Oxopiperazin-1-yl)thiazolidine-2,4-dione], the pIC50 is less than 4.00.

Take `Cn1cc(C2SC(=O)NC2=O)c2ccccc21` (centres unmarked) [Compound I-71, 5-(1-Methyl-1H-indol-3-yl)thiazolidine-2,4-dione]: the negative logarithm of the IC50 (pIC50) was less than 4.00.

Staying with this assay, now noted: read-out: CRBN HTRF IC50.
Turning to `CC(C)(C)n1c(SC2CCC(=O)NC2=O)nc2ccccc21` (centres unmarked) [Compound I-63, 3-((1-(tert-Butyl)-1H-benzo[d]imidazol-2-yl)thio)piperidine-2,6-dione], the pIC50 was 4.00 to 5.00.

Regarding `O=C1CCC(Sc2ccccc2C(F)(F)F)C(=O)N1` (centres unmarked) [Compound I-109], the pIC50 was 4.00 to 5.00.

Turning to `O=C1CCC(Sc2ccc(C(=O)O)cn2)C(=O)N1` (centres unmarked) [Compound I-133, 6-((2,6-Dioxopiperidin-3-yl)thio)nicotinic Acid], the pIC50 is 4.00 to 5.00.

Turning to `CCn1c(SC2CCC(=O)NC2=O)nc2ccccc21` (centres unmarked) [Compound I-11, 3-((1-ethyl-1H-benzo[d]imidazol-2-yl)thio)piperidine-2,6-dione], the negative logarithm of the IC50 (pIC50) was 5.00 to 6.00.

Take `O=C1CCC(Sc2ccc(F)c(F)c2)C(=O)N1` (centres unmarked) [Compound I-114]: the pIC50 was 4.00 to 5.00.

As for `N#Cc1ccc(SC2CCC(=O)NC2=O)cc1` (centres unmarked) [Compound I-67, 4-((2,6-Dioxopiperidin-3-yl)thio)benzonitrile], the pIC50 was 4.00 to 5.00.

`O=C1CCC(Sc2cccs2)C(=O)N1` (centres unmarked) [Compound I-72]: the pIC50 is 4.00 to 5.00.

`CCc1ccc(OC2CCC(=O)NC2=O)cc1` (centres unmarked) [Compound I-78, 3-(4-ethylphenoxy)piperidine-2,6-dione]: the pIC50 was 5.00 to 6.00.

`Cc1cccc(SC2CCC(=O)NC2=O)c1` (centres unmarked) [Compound I-69]: the pIC50 is 4.00 to 5.00.

Regarding `O=C1CCC(Oc2cccc3cccnc23)C(=O)N1` (centres unmarked) [Compound I-129], the pIC50 is 4.00 to 5.00.

Consider `Cc1cc(C)nc(SC2CCC(=O)NC2=O)n1` (centres unmarked) [Compound I-89], for which the pIC50 was 4.00 to 5.00.

`Cc1ccc(SC2CCC(=O)NC2=O)c(C)c1` (centres unmarked) [Compound I-79]: the negative logarithm of the IC50 (pIC50) is 5.00 to 6.00.

Regarding `CN1CCN(c2ccc(OC3CCC(=O)NC3=O)cc2)CC1` (centres unmarked) [Compound I-128], the pIC50 is 4.00 to 5.00.

In the case of `Cn1c(SC2CCC(=O)NC2=O)nc2ccccc21` (centres unmarked) [Compound I-12, 3-(1-Methyl-1H-benzoimidazol-2-ylsulfanyl)-piperidine-2,6-dione], the pIC50 was 4.00 to 5.00.

Regarding `CC(=O)Nc1ccc(SC2CCC(=O)NC2=O)cc1` (centres unmarked) [Compound I-13, N-[4-(2,6-Dioxo-piperidin-3-ylsulfanyl)-phenyl]-acetamide], the pIC50 was 4.00 to 5.00.

With `Cn1ccc(CN2CCC(=O)NC2=O)n1` [Compound I-106], the pIC50 is 4.00 to 5.00.

For `CN(C)c1ccc(SC2CCC(=O)NC2=O)cc1` (centres unmarked) [Compound I-85], the pIC50 is 5.00 to 6.00.

Regarding `O=C1CCC(Oc2ccccc2)C(=O)N1` (centres unmarked) [Compound I-103], the pIC50 is 4.00 to 5.00.

In the case of `NC(=O)c1ccnc(SC2CCC(=O)NC2=O)c1` (centres unmarked) [Compound I-130, 2-((2,6-Dioxopiperidin-3-yl)thio)isonicotinamide], the pIC50 was 5.00 to 6.00.

As for `O=C1CCC(Sc2cc(Cl)c(Cl)cc2Cl)C(=O)N1` (centres unmarked) [Compound I-102], the pIC50 is 4.00 to 5.00.

As for `COc1ccc(SC2CCC(=O)NC2=O)cc1` (centres unmarked) [Compound I-9, 3-((4-methoxyphenyl)thio)piperidine-2,6-dione], the pIC50 was 4.00 to 5.00.

In the case of `O=C1CCC(Sc2cc(C(F)(F)F)cc(C(F)(F)F)c2)C(=O)N1` (centres unmarked) [Compound I-92], the pIC50 is 4.00 to 5.00.

`CNC(=O)c1ccnc(SC2CCC(=O)NC2=O)c1` (centres unmarked) [Compound I-131, 2-((2,6-Dioxopiperidin-3-yl)thio)-N-methylisonicotinamide]: the negative logarithm of the IC50 (pIC50) was 4.00 to 5.00.

Take `O=C1CCC(Sc2ncccn2)C(=O)N1` (centres unmarked) [Compound I-83]: the pIC50 was 4.00 to 5.00.
